One block for each molecule: values may come before it.
Target: T1, rSlo2 channels (Rattus norvegicus, UniProt Q9Z258)
T1 construct: expressed in transfected cells; host or cells: Xenopus laevis oocytes injected with capped cRNA (pOX vector); inside-out patches
T1 sequence (Q9Z258 1-1239): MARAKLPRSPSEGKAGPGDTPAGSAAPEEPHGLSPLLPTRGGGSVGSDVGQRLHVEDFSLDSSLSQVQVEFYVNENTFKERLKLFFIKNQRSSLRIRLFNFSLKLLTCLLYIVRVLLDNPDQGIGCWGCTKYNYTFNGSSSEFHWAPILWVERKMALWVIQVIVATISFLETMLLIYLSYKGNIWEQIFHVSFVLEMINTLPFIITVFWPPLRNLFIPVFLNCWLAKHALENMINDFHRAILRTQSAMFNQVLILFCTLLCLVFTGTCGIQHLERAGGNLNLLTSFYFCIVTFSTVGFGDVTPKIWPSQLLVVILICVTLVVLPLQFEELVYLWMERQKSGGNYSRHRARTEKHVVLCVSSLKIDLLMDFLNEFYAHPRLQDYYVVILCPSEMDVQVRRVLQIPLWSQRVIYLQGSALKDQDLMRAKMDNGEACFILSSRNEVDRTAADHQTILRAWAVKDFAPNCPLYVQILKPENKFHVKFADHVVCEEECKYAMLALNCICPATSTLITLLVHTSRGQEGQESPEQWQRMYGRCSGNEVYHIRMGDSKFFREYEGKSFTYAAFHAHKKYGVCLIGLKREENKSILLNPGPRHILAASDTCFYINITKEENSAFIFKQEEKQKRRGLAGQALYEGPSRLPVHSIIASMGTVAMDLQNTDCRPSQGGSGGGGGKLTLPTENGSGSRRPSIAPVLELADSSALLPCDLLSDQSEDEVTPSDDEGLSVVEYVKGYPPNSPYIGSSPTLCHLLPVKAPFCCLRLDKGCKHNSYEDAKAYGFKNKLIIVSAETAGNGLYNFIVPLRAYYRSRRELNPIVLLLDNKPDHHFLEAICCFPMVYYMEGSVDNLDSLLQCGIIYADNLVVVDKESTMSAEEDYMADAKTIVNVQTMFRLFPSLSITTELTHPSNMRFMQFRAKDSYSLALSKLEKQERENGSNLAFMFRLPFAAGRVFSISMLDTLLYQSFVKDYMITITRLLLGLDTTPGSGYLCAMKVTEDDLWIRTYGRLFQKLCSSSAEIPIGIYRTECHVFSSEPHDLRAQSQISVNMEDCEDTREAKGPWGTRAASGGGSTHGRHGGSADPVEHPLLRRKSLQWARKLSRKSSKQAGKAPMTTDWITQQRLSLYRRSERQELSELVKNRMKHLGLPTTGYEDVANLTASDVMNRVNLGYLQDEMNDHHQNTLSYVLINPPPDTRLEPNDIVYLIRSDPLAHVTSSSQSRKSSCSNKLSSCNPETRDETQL
Experiment: Patch clamp of inside-out patches from Xenopus oocytes injected with rSlo2 cRNA
Format: cell-based
Procedure: FIG. 2a depicts current traces from an inside-out macropatch (2-3 MΩ electrode prior to seal formation) in the presence of 50 mM [Na+], FIG. 2a (i) and in the absence of [Na^+]i FIG. 2a (ii). Voltage steps (−70 mV to +70 mV) were applied in 10 mV increments from a holding potential of −70 mV. The calculated potassium equilibrium potential was −78 mV in these experiments. FIG. 2a (iii) The current-voltage relationship of the mean current obtained from 7 macropatches with a holding potential of −80 mV, and voltage steps from −80 to +80 mV in 10 mV increments FIG. 2a (iv) Plot of normalized IKNa obtained upon perfusion of inside-out patches with different Na^+ concentrations as indicated.
FIG. 2c depicts a current trace of an uninjected oocyte. […] For the macropatch experiments the pipette solution contained (in mM) 145 Na^+-gluconate, 5 KCI, 5 Ca^2+-gluconate, 3 Mg^2+-gluconate, 11 dextrose, 5 HEPES, pH 7.4 with NaOH. The bath solution contained (in mM): 110 KCI, 50 NaCI and 5 HEPES, pH 7.3 with KOH. NaCI was replaced by choline-Cl for the dose-response curve. In single channel experiments, the pipette solution contained (in mM) 80 K^+-gluconate, […], 5 HEPES, 2 MgCI2, pH 7.2 with KOH. The bath solution contained (in mM) 80 KCI, 80 NaCI or 80 cholineCl, 5 HEPES, 5 EGTA, pH 7.2 with KOH.
FIG. 5a (iii) depicts the current-voltage relationship of the mean current between 700-800 ms. The pipette solution contained (in mM) 80 K^+-gluconate, 80 Na^+-gluconate, 5 HEPES, 2 MgCI2, pH 7.2 with KOH. The bath solution contained (in mM) 80 KCI or 80 K^+-gluconate, 20 NaCI and 60 choline-Cl or 20 Na^+-gluconate and 120 dextrose, 5 HEPES, 5 EGTA, pH 7.2 with KOH. (b) (i) Dose response relationship for [Na+]i at 160 mM [CI]i or 10 mM [CI]i,. (ii) Dose response relationship for [CI]i at 80 mM [Na^+]i or 20 mM [Na^+]i. Currents for the dose response curves were measured and averaged over a 1 second interval at −60 mV and each patch was normalized to the current elicited in 80 mM [Na^+]i, and 160 mM [CI]i. Each experiment was completed within 120 seconds to minimize rundown and was perfused in order of decreasing [Na^+]i or [CI]i.
The single electrode patch clamp system was first used to analyze inside-out patches, and to investigate the properties of rSlo2 in the Xencpus oocyte expression system by transcribing cRNA and injecting it into oocytes.
To obtain efficient expression of rhSlo2.2 in Xencpus oocytes, the original rhSlo2.2 construct was cloned into pOX, a special vector optimized for oocyte expression. Capped cRNA was synthesized using the T3 mMessage mMachine kit (Ambion). rhSlo2.2 was linearized using NotI. Reactions were resuspended in nuclease-free water to a final concentration of 1.5 μg/μl. Oocytes were harvested from adult female Xenopus iaevis as described. Defolliculated oocytes were injected with approximately 75 ng of cRNA using a Drummond Nanojector. Injected oocytes were incubated at 19° C. in ND96 medium (in mM): 96 NaCl, 2 KCI, 1.8 CaCl2, 1 MgCl2, 5 HEPES, pH 7.5 with NaOH. Oocytes were analyzed 2-3 days after injection for single channel analysis or 3-6 days after injection for macroscopic current analysis.
Prior to recording, the vitelline membranes were mechanically removed. The contents of solutions used are described in the figure legends. […] Data were analyzed using pClamp 8.2 (Axon Instruments) and Sigmaplot 5 (Jandel Scientific) or Origin 5.0 (Microcal).

single channel activity (about 100 μM Ca^2+i, in the absence of Na^+i (data not shown)): inhibited | channel activity (presence of about 80 μM ~200 μM Ca^2+i (data not shown)): no effect
Structure (SMILES): [Ca+2] [Ca^2+i]

increase of amplitude of macroscopic current in patches (sodium concentration at cytoplasmic side increased from 10 to 50 mM, inside-out patch): more than ten times
Structure (SMILES): [Na+] [Na^+]

current as fraction of I max (55 mM Cl^−, 20 mM sodium ions, estimated from dose response plot): approximately 0.18 of I max | activation of rSlo2 by Cl^−i (seen only when Na^+i is also present): activated
Structure (SMILES): Cl [Cl^−]

— patent US20040241720A1, “Sodium activated potassium ion channel for therapeutic drug screening” (priority 2003, published 2004)
